Reference: PubChem BioAssay (NCI)
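How tested: cells in 96-well plates exposed to compound for 48 hours at five concentrations. GI50: concentration for 50% inhibition of growth. TGI: concentration producing complete growth inhibition.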

Tests used:
Experiment in all cases: DTP human tumour cell line panel, 48 h
RPMI-8226 leukemia = test system: RPMI-8226 leukemia
HOP-92 NSCLC = test system: HOP-92 NSCLC
SW-620 colon = test system: SW-620 colon
U251 CNS = test system: U251 CNS
NCI/ADR-RES ovarian = test system: NCI/ADR-RES ovarian
SK-MEL-2 melanoma = test system: SK-MEL-2 melanoma
MALME-3M melanoma = test system: MALME-3M melanoma
T-47D breast = test system: T-47D breast
OVCAR-8 ovarian = test system: OVCAR-8 ovarian
786-0 renal = test system: 786-0 renal

SMILES | GI50 (RPMI-8226 leukemia) [µM] | TGI (RPMI-8226 leukemia) [µM] | GI50 (HOP-92 NSCLC) [µM] | TGI (HOP-92 NSCLC) [µM] | GI50 (SW-620 colon) [µM] | TGI (SW-620 colon) [µM] | GI50 (U251 CNS) [µM] | TGI (U251 CNS) [µM] | GI50 (NCI/ADR-RES ovarian) [µM] | TGI (NCI/ADR-RES ovarian) [µM] | GI50 (SK-MEL-2 melanoma) [µM] | TGI (SK-MEL-2 melanoma) [µM] | GI50 (MALME-3M melanoma) [µM] | TGI (MALME-3M melanoma) [µM] | GI50 (T-47D breast) [µM] | TGI (T-47D breast) [µM] | GI50 (OVCAR-8 ovarian) [µM] | TGI (OVCAR-8 ovarian) [µM] | GI50 (786-0 renal) [µM] | TGI (786-0 renal) [µM]
CCN(CC)CCN1c2nc3ccccc3cc2Sc2cc3ccccc3nc21 | 1 | 2.97 | 0.869 | 3.2 | 1.53 | 2.99 | 1.95 | 4.48 | 2.5 | 7.83 | 1.69 | 4.4 | 1.57 | 3.12 | 3.09 | 12.5 | 2.43 | 8.15 | 2.17 | 4.64
CCCCCCCCCCNCCSS(=O)(=O)O | 2.2 | 5.7 | 8.84 | 25.7 | 1.95 | 4.32 | 1.99 | 4.12 | 2.11 | 4.37 | 2.4 | 6.63 | 5.83 | 19.6 | 10.9 | 29.5 | 2.12 | 4.68 | 4.55 | 14.3
Cc1ccc(Cl)c(NS(=O)(=O)c2ccc(-c3cnc(C4CC4)o3)cc2)c1 | 0.318 | 24.8 | 2.3 | 20.5 | 0.0528 | > 100 | 0.142 | 26.5 | 0.0618 | 6.04 | 0.412 | 50 | 11 | 49.7 | 0.0481 | 67.9 | 0.258 | > 58.9 | 0.0772 | > 100
[N-]=[N+]=NCCCn1c2c(c3ccc([N+](=O)[O-])cc3c1=O)C(=O)c1cc(-c3ccccc3)ccc1-2 | > 100 | > 100 | > 100 | > 100 | > 100 | > 100 | > 100 | > 100 | > 100 | > 100 | > 100 | > 100 | > 100 | > 100 | > 100 | > 100 | > 100 | > 100 | > 100 | > 100
COc1ccc2c(c1)CCc1cc(OC)ccc1/[N+]([O-])=[N+]\2[O-] |  | > 25.1 |  | 27.2 |  | 26.1 |  | 38.6 |  | > 62 |  | 43.8 |  | 38.5 |  | 49.1 |  | 33 |  | 18.6
COC1C=COC2(C)Oc3c(C)c(O)c4c(O)c(c(C5SCCS5)c(O)c4c3C2=O)NC(=O)/C(C)=C\C=CC(C)C(O)C(C)C(O)C(C)C(OC(C)=O)C1C (centres undefined) |  | 8.58 |  | 26.1 |  | 20.1 |  | 14.5 |  | 34.6 |  | 24.6 |  | 26.7 |  | 11.7 |  | 26 |  | 48.4
O=C(c1ccc([N+](=O)[O-])cc1)C(Br)C(Br)c1ccnc2ccccc12 (centres undefined) |  | 5.91 |  | 28.8 |  | 5.61 |  | 4.13 |  | > 71.7 |  | 26.4 |  | 25.4 |  | > 56.6 |  | 42.3 |  | 7.44
C#C[C@@]1(O)[C@@H](CO)O[C@@H](n2cc(C(F)(F)F)c3c(N)ncnc32)[C@@H]1O | 0.886 | 4.56 | 1.24 | 7.46 | 0.349 | > 21.7 | 0.409 |  | 0.487 | > 24.7 | 0.913 | 2.85 | 1.19 | 4.84 | 0.0639 | 3.77 | 0.243 | > 100 | 2.07 | > 100
